Source: patent US6737383B1, “Herbicidal oxadiazolidines” (priority 1999, dated 2004)

Key:
[1] = system: soybean; assay: Test B pre/postemergence soybean; assay type: in vivo, Glycine max
In short: (§1)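 Response is a visual 0-to-10 score relative to untreated plants, where 0 means no effect and 10 means complete control, taken twelve to sixteen days after application. Treatments went onto soil at planting and onto foliage of 1- to 4-leaf plants, using a surfactant-containing non-phytotoxic solvent.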

[2] = system: duck salad; assay: Test B flood test duck salad; assay type: in vivo, Heteranthera limosa
In short: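 Flood test on plants grown to the 2-leaf stage; treated plants kept in greenhouse twelve to sixteen days, then visually rated against controls on a 0 (no effect) to 10 (complete control) scale.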

[3] = system: cocklebur; assay: Test B pre/postemergence cocklebur; assay type: in vivo, Xanthium strumarium
In short: as §1

[4] = system: velvetleaf; assay: Test B pre/postemergence velvetleaf; assay type: in vivo, Abutilon theophrasti
In short: as §1

[5] = Preemergence, Rate 62 g/ha, scale of 0 to 10 where 0 is no effect and 10 is complete control
[6] = Preemergence, Rate 125 g/ha, 0 is no effect, 10 is complete control
[7] = Preemergence, Rate 250 g/ha, scale 0 to 10, 0 is no effect, 10 is complete control
[8] = Preemergence, Rate 500 g/ha, scale 0 to 10 (0 no effect, 10 complete control)
[9] = Rate 62 g/ha, Postemergence, scale of 0 to 10 where 0 is no effect and 10 is complete control
[10] = Rate 125 g/ha, Postemergence, scale 0 to 10
[11] = Rate 500 g/ha, Postemergence, scale 0 to 10
[12] = Rate 250 g/ha, Pre-emergence, flood-test species, scale 0 to 10, 0 is no effect, 10 is complete control
[13] = Postemergence, Rate 125 g/ha, scale 0 to 10, 0 is no effect, 10 is complete control
[14] = Postemergence, Rate 250 g/ha, scale 0 to 10, 0 is no effect, 10 is complete control
[15] = Preemergence, Rate 62 g/ha, scale 0 to 10 (0 no effect, 10 complete control)
[16] = Preemergence, Rate 250 g/ha, scale of 0 to 10 where 0 is no effect and 10 is complete control
[17] = Preemergence, Rate 500 g/ha, scale of 0 to 10 where 0 is no effect and 10 is complete control
[18] = Rate 500 g/ha, Postemergence, scale 0 to 10, 0 no effect, 10 complete control
[19] = Postemergence, Rate 62 g/ha, scale 0 to 10, 0 is no effect, 10 is complete control
[20] = Postemergence, Rate 250 g/ha, scale 0 to 10, 0 no effect, 10 complete control
[21] = Preemergence, Rate 62 g/ha, scale 0 to 10, 0 is no effect, 10 is complete control
[22] = Preemergence, Rate 125 g/ha, scale 0 to 10 (0 no effect, 10 complete control)
[23] = Preemergence, Rate 500 g/ha, scale 0 (no effect) to 10 (complete control)
[24] = Rate 125 g/ha, Postemergence, scale 0 to 10, 0 no effect, 10 complete control

COc1nc(OC)nc(N(C(=O)n2oc(=O)n(-c3ccccc3C)c2=O)C(C)C)n1 [Compound 181]
0: Soybean plant response rating [1, 5] | Soybean plant response rating (0 to 10 scale) [1, 6] | Soybean plant response rating [1, 7] | Soybean plant response rating [1, 8] | Soybean plant response rating [1, 9] | Soybean plant response rating [1, 10] | Plant response rating (0 to 10; 0 is no effect, 10 is complete control), Soybean ([1]; Rate 250 g/ha, Postemergence) | Soybean plant response rating [1, 11] | Ducksalad plant response rating ([2]; Rate 62 g/ha, headed Pre-emergence (flood test species), scale 0 to 10 (0 no effect, 10 complete control)) | Ducksalad plant response rating ([2]; Rate 125 g/ha, Pre-emergence, flood test species, scale 0 to 10 where 0 is no effect and 10 is complete control) | Ducksalad plant response rating [2, 12] | Plant response rating, Ducksalad ([2]; Rate 500 g/ha, headed Pre-emergence (flood test species), scale 0 to 10 (0 no effect, 10 complete control)) | Cocklebur plant response rating [3, 5] | Cocklebur plant response rating (0 to 10 scale) [3, 6] | Cocklebur plant response rating [3, 7] | Cocklebur plant response rating [3, 8] | Cocklebur plant response rating [3, 9] | Cocklebur plant response rating [3, 10] | Plant response rating (0 to 10; 0 is no effect, 10 is complete control), Cocklebur ([3]; Rate 250 g/ha, Postemergence) | Cocklebur plant response rating [3, 11] | Velvetleaf plant response rating [4, 5] | Velvetleaf plant response rating [4, 7] | Velvetleaf plant response rating [4, 8] | Velvetleaf plant response rating [4, 10] | Plant response rating (0 to 10; 0 is no effect, 10 is complete control), Velvetleaf ([4]; Rate 250 g/ha, Postemergence) | Velvetleaf plant response rating [4, 11]

CC(C)N(C(=O)n1oc(=O)n(CCl)c1=O)c1ccc(F)cc1 [Compound 376]
0: Plant response rating, Soybean [1, 13] | Plant response rating, Soybean [1, 14] | Plant response rating, Soybean [1, 15] | Soybean plant response rating (0 to 10 scale) ([1]; Preemergence, Rate 125 g/ha) | Soybean plant response rating [1, 16] | Soybean plant response rating [1, 17] | Soybean plant response rating [1, 9] | Plant response rating, Soybean [1, 18] | Plant response rating, Ducksalad (0 to 10 scale, 0 is no effect, 10 is complete control) ([2]; Rate 62 g/ha, flood test species, Pre-emergence, visual evaluation after twelve to sixteen days) | Ducksalad plant response rating (0 to 10 scale, 0 is no effect, 10 is complete control) ([2]; Rate 125 g/ha, under heading Pre-emergence, flood test species, visual evaluation after twelve to sixteen days) | Ducksalad plant response rating [2, 12] | Ducksalad plant response rating ([2]; Rate 500 g/ha, Pre-emergence, flood test species, scale 0 to 10 (0 no effect, 10 complete control)) | Plant response rating, Cocklebur [3, 13] | Plant response rating, Cocklebur [3, 14] | Plant response rating, Cocklebur [3, 15] | Cocklebur plant response rating (0 to 10 scale) ([3]; Preemergence, Rate 125 g/ha) | Cocklebur plant response rating [3, 16] | Cocklebur plant response rating [3, 17] | Cocklebur plant response rating [3, 9] | Plant response rating, Cocklebur [3, 18] | Plant response rating, Velvetleaf [4, 13] | Plant response rating, Velvetleaf [4, 14] | Plant response rating, Velvetleaf [4, 15] | Velvetleaf plant response rating (0 to 10 scale) ([4]; Preemergence, Rate 125 g/ha) | Velvetleaf plant response rating [4, 16] | Velvetleaf plant response rating [4, 17] | Velvetleaf plant response rating [4, 9] | Plant response rating, Velvetleaf [4, 18]

Cc1ccccc1-n1c(=O)on(C(=O)N(c2ccc([N+](=O)[O-])cc2)C(C)C)c1=O [Compound 44]
0: Soybean plant response rating [1, 19] | Plant response rating, Soybean [1, 21] | Plant response rating, Soybean [1, 22] | Plant response rating, Soybean [1, 16] | Soybean plant response rating [1, 23] | Soybean plant response rating [1, 24] | Ducksalad plant response rating [2, 19] | Ducksalad plant response rating ([2]; Rate 125 g/ha, Postemergence section (flood test species), scale 0 to 10, 0 no effect, 10 complete control) | Ducksalad plant response rating ([2]; Rate 500 g/ha, Postemergence section of Table B, 0 to 10 scale (0 no effect, 10 complete control)) | Ducksalad plant response rating ([2]; flood test, listed under Postemergence, Rate 250 g/ha, scale 0 to 10, 0 no effect, 10 complete control) | Cocklebur plant response rating [3, 19] | Cocklebur plant response rating [3, 20] | Plant response rating, Cocklebur [3, 21] | Plant response rating, Cocklebur [3, 16] | Cocklebur plant response rating [3, 23] | Cocklebur plant response rating [3, 24] | Cocklebur plant response rating ([3]; Rate 500 g/ha, Postemergence, 0 to 10 scale (0 no effect, 10 complete control)) | Velvetleaf plant response rating [4, 19] | Velvetleaf plant response rating [4, 20] | Plant response rating, Velvetleaf [4, 21] | Plant response rating, Velvetleaf [4, 22] | Plant response rating, Velvetleaf [4, 16] | Velvetleaf plant response rating [4, 23] | Velvetleaf plant response rating [4, 24]
1: Soybean plant response rating [1, 20]
